Values joined by “and” are separate entries in the source; they are usually repeats but may differ in a detail not shown here. Equal entries are not always repeated.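 Method: 48-hour compound exposure of cells in 96-well plates, five concentrations, linear interpolation of endpoints. Here, GI50 denotes the concentration required for 50% inhibition of growth. Definition used: TGI = concentration required for complete inhibition of growth.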
Tests used:
Experiment in all cases: growth of human tumour cells (NCI), 48 h
LOX IMVI melanoma = tested on: LOX IMVI melanoma
786-0 renal = tested on: 786-0 renal
BT-549 breast = tested on: BT-549 breast
UO-31 renal = tested on: UO-31 renal
OVCAR-4 ovarian = tested on: OVCAR-4 ovarian
COLO 205 colon = tested on: COLO 205 colon
OVCAR-3 ovarian = tested on: OVCAR-3 ovarian
UACC-62 melanoma = tested on: UACC-62 melanoma

SMILES | GI50 (LOX IMVI melanoma) | TGI (LOX IMVI melanoma) | GI50 (786-0 renal) | GI50 (BT-549 breast) | TGI (BT-549 breast) | GI50 (UO-31 renal) | TGI (UO-31 renal) | GI50 (OVCAR-4 ovarian) | TGI (OVCAR-4 ovarian) | GI50 (COLO 205 colon) | TGI (COLO 205 colon) [µM] | GI50 (OVCAR-3 ovarian) | TGI (OVCAR-3 ovarian) | GI50 (UACC-62 melanoma) | TGI (UACC-62 melanoma) | TGI (786-0 renal) [µM]
COc1ccc2c(c1)nnn1c3ncccc3c(N=O)c21 | 799 nM and 552 nM | 7.06 µM and 2.56 µM | 334 nM and 2380 nM | 5060 nM and 1460 nM | 16.3 µM and 4.68 µM | 75.7 nM and 347 nM | 0.732 µM and 4.64 µM | 1290 nM and 3110 nM | 16.6 µM and > 100 µM | 681 nM and 1220 nM | 2.74 | 1110 nM and 2410 nM | 5.18 µM and 7.68 µM | 853 nM and 2560 nM | 7.81 µM and 13.9 µM | 
COc1ccc(-c2nc(/C=N/Nc3cc(C)nc4ccc(Cl)cc34)c(C)o2)cc1 | 1740 nM | 3.23 µM | 1560 nM | 1950 nM | 4.28 µM | 1600 nM | 3 µM | 1530 nM | 2.9 µM | 1630 nM | 3.18 | 1810 nM | 3.27 µM | 1800 nM | 3.37 µM | 2.98
C=C1/C(=C\C=C2/CCC[C@]3(C)[C@@H]([C@H](C)CCCC(C)(C)O)CC[C@@H]23)C[C@@H](OC(=O)CBr)C[C@@H]1O | 147 nM | 0.304 µM | 642 nM | 1960 nM | 4.36 µM | 155 nM | 0.292 µM | 329 nM | 1.6 µM | 2580 nM | 19.6 | 395 nM | 1.23 µM | 3290 nM | 9.84 µM | 1.89
COc1cc2oc3cc(=O)cc4oc(-c5ccccc5)cc(c2c2c1CCC(c1ccccc1)O2)c43 (stereo not given) |  | > 100 µM |  |  | > 100 µM |  | > 100 µM |  | > 100 µM |  | 46.1 |  | 77.6 µM |  | > 100 µM | > 100
CC(=O)C(=Cc1ccc(C=C(C(C)=O)C(C)=O)cc1)C(C)=O |  | 1.91 µM |  |  | 4.6 µM |  | 3.1 µM |  | 6.76 µM |  | 3.33 |  | 5 µM |  | 4.02 µM | 5.84
CN(C)CCNC(=O)c1cc([N+](=O)[O-])cc2c1Oc1ccccc1O2 |  | > 100 µM |  |  | > 100 µM |  | 33.2 µM |  | > 100 µM |  | 33.3 |  | > 100 µM |  | 39.2 µM | > 100
O=[N+]([O-])c1ccc2c(c1)Cc1cc(N=Cc3ccc4c(c3)OCO4)ccc1-2 |  | > 100 µM |  |  | > 100 µM |  | > 100 µM |  | > 100 µM |  | > 100 |  | > 100 µM |  | > 100 µM | > 100
Cc1cc(NCCN(C(C)C)C(C)C)nc(/N=C(\N)Nc2ccc(Cl)c(C(F)(F)F)c2)n1 | 193 nM | 0.365 µM | 736 nM | 1640 nM | 3.59 µM | 201 nM | 0.604 µM | 697 nM | 1.97 µM | 164 nM | 0.305 | 1320 nM | 2.77 µM | 198 nM | 0.417 µM | 2.06
OCC(O)C(Cl)CCl (stereo not given) |  |  |  |  | > 100 µM |  | > 100 µM |  | > 100 µM |  | > 100 |  | > 100 µM |  | > 100 µM | > 100
O=C1c2cccc(NCCN=Cc3cc([N+](=O)[O-])ccc3O)c2C(=O)c2c(NCCN=Cc3cc([N+](=O)[O-])ccc3O)cccc21 | 2620 nM | 29.1 µM | 7040 nM | 36900 nM | > 100 µM | 8340 nM | > 100 µM | 2060 nM | > 100 µM | 1780 nM | 20.2 | 4790 nM | 72 µM | 33000 nM | > 100 µM | > 100
Cc1cc(Cl)ccc1Nc1nc(C(F)(F)F)ccc1C(=O)N/N=C/c1ccc(Cl)cc1 | 1380 nM | 11.7 µM | 2040 nM | 1340 nM | 4.71 µM | 1500 nM | 6.04 µM | 1460 nM | 21.2 µM | 1630 nM | 3.37 | 1320 nM | 5.28 µM | 2140 nM | 5.33 µM | 5.74
c1ccc(CN2CCC3(CC2)SSC2(CCN(Cc4ccccc4)CC2)S3)cc1 |  | > 100 µM |  |  | > 100 µM |  | > 100 µM |  | > 100 µM |  | 33.3 |  | > 100 µM |  | > 100 µM | > 100
O=C(Nc1ccncc1)C(=O)c1cn(Cc2ccc(Cl)cc2)c2ccccc12 | 57.4 nM | > 100 µM | 53.3 nM |  |  | 78.8 nM | > 100 µM | 106 nM | > 100 µM | 232 nM | > 22.3 | 26.7 nM | 0.0652 µM | 51.4 nM | > 100 µM | > 100
COC1/C=C/C(C)C(C(C)C(OC)C(C)CCC(=O)C(C)C(C/C=C/N(C)C=O)OC)OC(=O)/C=C/C=C(\C)CC(OC)CC2=CC(=O)O[C@H](C2)C(C)C(OC)CC(OC)/C=C/C(C)C(OC)C1 (stereo not given in full) |  |  | 15.5 nM | 108 nM |  | 29.4 nM | 0.0943 µM and 0.0265 µM | 10.8 nM |  | 18.4 nM | 0.131 | 12.7 nM | 0.0307 µM | 51.5 nM |  | 0.0356
c1csc(-c2cn3nc(-c4c[nH]c5ccccc45)sc3n2)c1 |  |  | 3060 nM | 2870 nM | 31.7 µM | 1710 nM | > 100 µM | 4420 nM | > 100 µM |  |  | 924 nM | 9.02 µM | 738 nM | 18.7 µM | > 100
COc1ccc(/C=C/C(=O)c2ccc(O)c(CN3CCN(c4cc5c(cc4F)c(=O)c(C(=O)O)cn5C4CC4)CC3)c2)cc1 |  |  | 854 nM | 1280 nM | > 100 µM |  |  | 54900 nM | > 100 µM | 11800 nM | 33.4 | 1970 nM | > 100 µM | 1320 nM | > 100 µM | > 100
COc1cccc2c1ccc1nc3cccc(C(=O)N[C@H](C)CN(C)C)c3nc12 | 47.4 nM | 0.55 µM | 88.7 nM | 795 nM | 2.93 µM |  |  | 92.7 nM | 0.894 µM | 64.6 nM | 0.282 | 102 nM | 0.511 µM | 44.7 nM | 0.198 µM | 2.44

Source: PubChem BioAssay (NCI)
